Reference: ChEMBL document CHEMBL6109096, “Synthesis, anti-allergic rhinitis evaluation and mechanism investigation of novel 1,2,4-triazole-enamides as CB1 R antagonist” (Eur J Med Chem, 2025)
Calls of active or inactive are those of the source. The calls are words filed in the database; no cut-off is given here.

Experiments:
RAW264.7 [1] = test: Cytotoxicity against mouse RAW264.7 cells assessed as reduction in cell viability at 10 uM incubated for 24 hrs by CCK-8 assay; format: toxicity, cell-based; conditions: raw264.7, 24 h
RAW264.7 [2] = test: Downregulation of P-P65 protein expression in LPS-induced mouse RAW264.7 cells at 5 to 20 uM by Western blotting analysis; format: functional, cell-based; conditions: dose 5-20 µM
Mus musculus [3] = test: Anti-inflammatory activity in ovalbumin-induced allergic rhinitis male Balb/c mouse assessed as reduction in number of cells on nasal lavage fluid at 50 to 150 mg/kg, po administered via gavage for 7 days by giemsa staining based analysis; format: functional, organism-based; conditions: dose 50-150 mg/kg, time 7.0 day
RAW264.7 [4] = test: Inhibition of IL-1beta (unknown origin) in mouse RAW264.7 relative to control; format: cell-based; conditions: dose or concentration not given here
Mus musculus [5] = test: Anti-inflammatory activity in ovalbumin-induced allergic rhinitis male Balb/c mouse assessed as reduction in number of mast cells on nasal lavage fluid at 150 mg/kg, po administered via gavage for 7 days by giemsa staining based analysis; format: functional, organism-based; conditions: time 7.0 day
Mus musculus [6] = test: Anti-inflammatory activity in ovalbumin-induced allergic rhinitis male Balb/c mouse model assessed as reduction in serum histamine expression at 150 mg/kg, po administered via gavage for 7 days by ELISA; format: functional, organism-based; conditions: time 7.0 day
Mus musculus [7] = test: Anti-inflammatory activity in ovalbumin-induced allergic rhinitis male Balb/c mouse assessed as reduction in inflammation of nasal mucosal tissue at 50 to 150 mg/kg, po administered via gavage for 7 days by H and E staining based analysis; format: functional, organism-based; conditions: dose 50-150 mg/kg, time 7.0 day
RAW264.7 [8] = test: Downregulation of p-P38 intranuclear expression in mouse RAW264.7 cells at 5 to 20 uM by immunofluorescence staining based analysis; format: functional, cell-based; conditions: dose 5-20 µM
RAW264.7 [9] = test: Downregulation of P-IKBalpha protein expression in LPS-induced mouse RAW264.7 cells at 5 to 20 uM by Western blotting analysis; format: functional, cell-based; conditions: dose 5-20 µM
RAW264.7 [10] = test: Downregulation of p-JNK protein expression in LPS-induced mouse RAW264.7 cells at 5 to 20 uM by Western blotting analysis; format: functional, cell-based; conditions: dose 5-20 µM
RAW264.7 [11] = test: Downregulation of p-ERK protein expression in LPS-induced mouse RAW264.7 cells at 5 to 20 uM by Western blotting analysis; format: functional, cell-based; conditions: dose 5-20 µM
RAW264.7 [12] = test: Downregulation of p-P38 protein expression in LPS-induced mouse RAW264.7 cells at 5 to 20 uM by Western blotting analysis; format: functional, cell-based; conditions: dose 5-20 µM
Mus musculus [13] = test: Anti-inflammatory activity in ovalbumin-induced allergic rhinitis male Balb/c mouse assessed as reduction in number of goblet cells in nasal mucosal tissues at 50 to 150 mg/kg, po administered via gavage for 7 days by PAS staining based analysis; format: functional, organism-based; conditions: dose 50-150 mg/kg, time 7.0 day
RAW264.7 [14] = test: Anti-inflammatory activity in LPS-induced mouse RAW264.7 cells assessed as reduction in IL-1beta mRNA expression incubated for 24 hrs by qRT-PCR analysis; format: functional, cell-based; conditions: dose 5-20 µM
Mus musculus [15] = test: Anti-inflammatory activity in ovalbumin-induced allergic rhinitis male Balb/c mouse model assessed as reduction in IgE expression at 100 mg/kg, po administered via gavage for 7 days (reference value: 0.268 +/- 0.045); format: functional; conditions: time 7 day
Mus musculus [16] = test: Anti-inflammatory activity in ovalbumin-induced allergic rhinitis male Balb/c mouse assessed as reduction in number of eosinophils on nasal lavage fluid at 150 mg/kg, po administered via gavage for 7 days by giemsa staining based analysis; format: functional, organism-based; conditions: time 7.0 day
RAW264.7 [17] = test: Anti-inflammatory activity in LPS-induced mouse RAW264.7 cells assessed as reduction in TNF-alpha mRNA expression incubated for 24 hrs by qRT-PCR analysis; format: functional, cell-based; conditions: dose 5-20 µM
Mus musculus [18] = test: Anti-inflammatory activity in ovalbumin-induced allergic rhinitis male Balb/c mouse assessed as reduction in number of eosinophils on nasal lavage fluid at 50 to 150 mg/kg, po administered via gavage for 7 days by giemsa staining based analysis; format: functional, organism-based; conditions: dose 50-150 mg/kg, time 7.0 day
Mus musculus [19] = test: Anti-inflammatory activity in ovalbumin-induced allergic rhinitis male Balb/c mouse model assessed as reduction in nose scratching administered orally via gavage for 7 days; format: functional, organism-based; conditions: dose 50-150 mg/kg, route po, time 7.0 day
Mus musculus [20] = test: Anti-inflammatory activity in ovalbumin-induced allergic rhinitis male Balb/c mouse model assessed as decrease in p-p38 intranuclear expression in nasal mucosal at 50 to 150 mg/kg, po administered via gavage for 7 days by immunofluorescence staining based analysis; format: functional, organism-based; conditions: dose 50-150 mg/kg, time 7.0 day
Mus musculus [21] = test: Anti-inflammatory activity in ovalbumin-induced allergic rhinitis male Balb/c mouse model assessed as reduction in IgE expression at 50 mg/kg, po administered via gavage for 7 days (reference value: 0.268 +/- 0.045); format: functional; conditions: time 7 day
RAW264.7 [22] = test: Anti-inflammatory activity in LPS-induced mouse RAW264.7 cells assessed as reduction in IL-6 mRNA expression incubated for 24 hrs by qRT-PCR analysis; format: functional, cell-based; conditions: dose 5-20 µM
RAW264.7 [23] = test: Downregulation of CB1 R expression in LPS-induced mouse RAW264.7 cells at 5 to 20 uM by immunofluorescence staining based analysis; format: functional, cell-based; conditions: dose 5-20 µM
Mus musculus [24] = test: Anti-inflammatory activity in ovalbumin-induced allergic rhinitis male Balb/c mouse model assessed as reduction in serum histamine expression at 50 to 150 mg/kg, po administered via gavage for 7 days by ELISA; format: functional, organism-based; conditions: dose 50-150 mg/kg, time 7.0 day
Mus musculus [25] = test: Anti-inflammatory activity in ovalbumin-induced allergic rhinitis male Balb/c mouse model assessed as reduction in IgE expression at 150 mg/kg, po administered via gavage for 7 days (reference value: 0.268 +/- 0.045); format: functional; conditions: time 7 day
Mus musculus [26] = test: Anti-inflammatory activity in ovalbumin-induced allergic rhinitis male Balb/c mouse assessed as reduction in number of mast cells on nasal lavage fluid at 50 to 150 mg/kg, po administered via gavage for 7 days by giemsa staining based analysis; format: functional, organism-based; conditions: dose 50-150 mg/kg, time 7.0 day
Mus musculus [27] = test: Anti-inflammatory activity in ovalbumin-induced allergic rhinitis male Balb/c mouse model assessed as reduction in sneezing administered orally via gavage for 7 days; format: functional, organism-based; conditions: dose 50-150 mg/kg, route po, time 7.0 day
RAW264.7 [28] = test: Downregulation of p-P38 expression in mouse RAW264.7 cells at 5 to 20 uM by immunofluorescence staining based analysis; format: functional, cell-based; conditions: dose 5-20 µM
Mus musculus [29] = test: Anti-inflammatory activity in ovalbumin-induced allergic rhinitis male Balb/c mouse model assessed as reduction in IL-4 expression in nasal lavage fluid at 50 to 150 mg/kg, po administered via gavage for 7 days by ELISA; format: functional, organism-based; conditions: dose 50-150 mg/kg, time 7.0 day
RAW264.7 [30] = test: Inhibition of IL-6 (unknown origin) in mouse RAW264.7 relative to control; format: cell-based; conditions: dose or concentration not given here

For CN(/C=C\c1ccccc1)C(=O)c1nc(-c2ccccc2Cl)n(-c2ccccc2)n1, the Activity (RAW264.7 [1]) was “Non-toxic”.

Cc1cccc(-c2nc(C(=O)N(C)/C=C\c3ccccc3)nn2-c2ccccc2)c1 was tested, and the Activity (RAW264.7 [1]) was “Non-toxic”.

For CN(/C=C\c1ccccc1)C(=O)c1nc(-c2ccco2)n(-c2ccccc2)n1, the Activity (RAW264.7 [1]) was “Non-toxic”.

In the case of CN(/C=C\c1ccccc1)C(=O)c1nc(-c2cccc(Cl)c2)n(-c2ccccc2)n1, the Activity (RAW264.7 [1]) is reported as “Non-toxic”.

With CN(/C=C\c1ccccc1)C(=O)c1nc(C2CCCCC2)n(-c2ccccc2)n1 the Activity (RAW264.7 [1]) was “Non-toxic”, the Activity (RAW264.7 [2]) was “Active” and the Activity (Mus musculus [3]) was “Active”. The inhibition (RAW264.7 [4]) was 77%, the Activity (Mus musculus [5]) was “Active; Most Effective Group Compared To Other Dosing Group” and the Activity (Mus musculus [6]) was “Active; More Effective Than Other Dosing Group”. The Activity (Mus musculus [7]) was “Active”, the Activity (RAW264.7 [8]) was “Active” and the Activity (RAW264.7 [9]) was “Active”. For the same compound, the Activity (RAW264.7 [10]) was “Active”, the Activity (RAW264.7 [11]) was “Active” and the Activity (RAW264.7 [12]) was “Active”. The Activity (Mus musculus [13]) was “Active”, the Activity (RAW264.7 [14]) was “Dose-dependent-effect” and the Activity (Mus musculus [15]) was 0.212. The Activity (Mus musculus [16]) was “Active; Most Effective Group Compared To Other Dosing Group”, the Activity (RAW264.7 [17]) was “Dose-dependent-effect” and the Activity (Mus musculus [18]) was “Active”. The Activity (Mus musculus [19]) was “Dose-dependent-effect”, the Activity (Mus musculus [20]) was “Active” and the Activity (Mus musculus [21]) was 0.192. For the same compound, the Activity (RAW264.7 [22]) was “Dose-dependent-effect”, the Activity (RAW264.7 [23]) was “Active” and the Activity (Mus musculus [24]) was “Active”. For the same compound, the Activity (Mus musculus [25]) was 0.182, the Activity (Mus musculus [26]) was “Active” and the Activity (Mus musculus [27]) was “Dose-dependent-effect”. For the same compound, the Activity (RAW264.7 [28]) was “Active”, the Activity (Mus musculus [29]) was “Active” and the inhibition (RAW264.7 [30]) was 88%.

In the case of CN(/C=C\c1ccccc1)C(=O)c1nc(CC(C)(C)C)n(-c2ccccc2)n1, the Activity (RAW264.7 [1]) is reported as “Non-toxic”.
